Assay results published in ChEMBL document CHEMBL2146463, “Apoptosis-inducing effects of distichamine and narciprimine, rare alkaloids of the plant family Amaryllidaceae” (Bioorg Med Chem Lett, 2012).
The source made the active and inactive calls. No cut-off for these calls is given here.

Experiments:
[1] = Induction of apoptosis in rat 5123TC cells assessed as apoptotic index at 25 uM after 48 hrs; type: functional
[2] = Induction of apoptosis in rat 5123TC cells after 48 hrs; type: functional; conditions: read-out: ED50 (the source's name)
[3] = tested on: CCRF-CEM; assay: Cytotoxicity against human CEM cells after 72 hrs by Calcein AM assay; type: functional, cell-based
[4] = tested on: K562; assay: Cytotoxicity against human K562 cells after 72 hrs by Calcein AM assay; type: functional, cell-based; conditions: K562, 72 h
[5] = tested on: MCF7; assay: Cytotoxicity against human MCF7 cells after 72 hrs by Calcein AM assay; type: functional, cell-based; conditions: MCF7, 72 h
[6] = tested on: HeLa; assay: Cytotoxicity against human HeLa cells after 72 hrs by Calcein AM assay; type: functional, cell-based
[7] = tested on: G-361; assay: Cytotoxicity against human G361 cells after 72 hrs by Calcein AM assay; type: functional, cell-based; conditions: G-361, 72 h
[8] = tested on: BJ; assay: Cytotoxicity against human BJ cells after 72 hrs by Calcein AM assay
[9] = tested on: CCRF-CEM; assay: Induction of apoptosis in human CEM cells assessed increase in expression of p53 after 24 hrs by Western Blot analysis; type: functional, cell-based
[10] = tested on: CCRF-CEM; assay: Induction of apoptosis in human CEM cells assessed as decrease level of procaspase-3 at 10 uM after 24 hrs by Western Blot analysis; type: functional, cell-based
[11] = tested on: CCRF-CEM; assay: Induction of apoptosis in human CEM cells assessed as increase cleavage of PARP at 20 uM after 24 hrs by Western Blot analysis; type: functional, cell-based
[12] = tested on: CCRF-CEM; assay: Cell cycle arrest in human CEM cells assessed as accumulation at sub-G1 phase at 1 to 20 uM after 24 hrs by FACS analysis relative to control; type: functional
[13] = tested on: CCRF-CEM; assay: Cell cycle arrest in human CEM cells assessed as increase accumulation at G2/M phase after 24 hrs by FACS analysis; type: functional, cell-based
[14] = tested on: CCRF-CEM; assay: Cell cycle arrest in human CEM cells assessed as decrease accumulation at G0/G1 phase at 1 to 20 uM after 24 hrs by FACS analysis; type: functional, cell-based
[15] = tested on: CCRF-CEM; assay: Cell cycle arrest in human CEM cells assessed as decrease accumulation at S phase at 1 to 20 uM after 24 hrs by FACS analysis; type: functional, cell-based
[16] = tested on: CCRF-CEM; assay: Induction of apoptosis in human CEM cells assessed as increase in activity of caspases-3/7 at 20 uM after 24 hrs by fluorescence analysis relative to control; type: functional
[17] = tested on: CCRF-CEM; assay: Induction of apoptosis in human CEM cells assessed as increase cleavage of PARP at 10 uM after 24 hrs by Western Blot analysis; type: functional, cell-based
[18] = tested on: CCRF-CEM; assay: Induction of apoptosis in human CEM cells assessed as decrease level of procaspase-3 at 20 uM after 24 hrs by Western Blot analysis; type: functional, cell-based
[19] = tested on: CCRF-CEM; assay: Induction of apoptosis in human CEM cells assessed increase in expression of p53 at 10 uM after 24 hrs by Western Blot analysis; type: functional, cell-based
[20] = tested on: CCRF-CEM; assay: Induction of apoptosis in human CEM cells assessed increase in expression of p53 at 20 uM after 24 hrs by Western Blot analysis; type: functional, cell-based
[21] = tested on: CCRF-CEM; assay: Induction of apoptosis in human CEM cells assessed activity of Bcl-2 at 1 to 20 uM after 24 hrs by Western Blot analysis; type: functional, cell-based
[22] = tested on: CCRF-CEM; assay: Induction of apoptosis in human CEM cells assessed decrease level of Mcl-1 at 20 uM after 24 hrs by Western Blot analysis; type: functional, cell-based
[23] = tested on: CCRF-CEM; assay: Induction of apoptosis in human CEM cells assessed as […] after 24 hrs by Western Blot analysis; type: functional, cell-based
[24] = tested on: CCRF-CEM; assay: Induction of apoptosis in human CEM cells assessed as decrease level of procaspase-3 after 24 hrs by Western Blot analysis; type: functional, cell-based
[25] = tested on: MCF7; assay: Cytotoxicity against human MCF7 cells; type: functional, cell-based
[26] = tested on: CCRF-CEM; assay: Induction of apoptosis in human CEM cells assessed decrease level of Mcl-1 at 1 to 20 uM after 24 hrs by Western Blot analysis; type: functional, cell-based
[27] = tested on: CCRF-CEM; assay: Induction of apoptosis in human CEM cells assessed as increase cleavage of PARP at 1 to 20 uM after 24 hrs by Western Blot analysis; type: functional, cell-based
[28] = tested on: CCRF-CEM; assay: Induction of apoptosis in human CEM cells assessed as decrease level of procaspase-3 at 1 to 20 uM after 24 hrs by Western Blot analysis; type: functional, cell-based
[29] = tested on: CCRF-CEM; assay: Cell cycle arrest in human CEM cells assessed as accumulation at sub-G1 phase at 20 uM after 24 hrs by FACS analysis relative to control; type: functional, cell-based
[30] = tested on: NCI-H460; assay: Cytotoxicity against human NCI-H460 cells by MTT assay; type: functional, cell-based

In the case of `COc1c2c(cc3c1[C@@H](O)N1CC[C@]34[C@H]3O[C@H]3[C@H](OC)C[C@@H]14)OCO2`, the Activity [1] is reported as 25%.
Work on `CO[C@H]1C=C[C@@]23c4cc5c(cc4CN(C[C@@H]2O)[C@H]3C1)OCO5` yielded an EC50 [2] of 12.5 µM and an Activity [1] of 90%.
Compound `CO[C@@H]1C=C[C@@]23c4cc5c(cc4CN(C[C@@H]2O)[C@H]3C1)OCO5` [(+)-HAEMANTHAMINE] has an IC50 [3] of 2.1 µM, an IC50 [4] of 3.4 µM and an IC50 [5] of 8.1 µM. The IC50 [6] was 7 µM, the IC50 [7] was 3.7 µM and the IC50 [8] was 2.7 µM. The EC50 [2] was 15 µM and the Activity [1] was 90%.
With `COc1c2c(cc3c1OCO3)[C@]13C=C[C@H](OC)C[C@H]1N(CC3)C2` [BUPHANIDRINE] the IC50 [3] was greater than 50 µM, the IC50 [4] was greater than 50 µM and the IC50 [5] was greater than 50 µM. For the same compound, the IC50 [6] was greater than 50 µM, the IC50 [7] was greater than 50 µM and the IC50 [8] was 26.2 µM.
With `COC1=CC(=O)[C@@]23CCN(Cc4c2cc2c(c4OC)OCO2)[C@@H]3C1` [DISTICHAMINE] the Activity [9] was “Dose-dependent effect”, the IC50 [3] was 4.5 µM and the Activity [10] was “Active”. For the same compound, the Activity [11] was “Active”, the IC50 [4] was 4.1 µM and the IC50 [5] was 2.3 µM. It also gave an IC50 [6] of 2.2 µM, an IC50 [7] of 14.7 µM and an IC50 [8] of 10.5 µM. The Activity [12] was 23.7%, the Activity [13] was “Dose-dependent effect” and the Activity [14] was “Active”. The Activity [15] was “Active”, the “fold change (FC)” value [16] was 12.5 and the Activity [17] was “Active”. The Activity [18] was “Active”, the Activity [19] was “Active” and the Activity [20] was “Active”. For the same compound, the Activity [21] was “inactive”, the Activity [22] was “Active” and the Activity [23] was “Dose-dependent effect”. For the same compound, the Activity [24] was “Dose-dependent effect”.
`COc1ccc2c3c1O[C@H]1C[C@@H](O)C=C[C@@]31CCN(C)C2` [GALANTAMINE] gave an IC50 [3] greater than 50 µM, an IC50 [4] greater than 50 µM and an IC50 [5] greater than 50 µM. The IC50 [6] was greater than 50 µM, the IC50 [7] was greater than 50 µM and the IC50 [8] was greater than 50 µM.
For `COc1cc2c(cc1OC)[C@H]1[C@H]3C(=CC[C@H]1OC2=O)CCN3C` [HOMOLYCORINE], the IC50 [3] was 15 µM, the IC50 [4] was 19.4 µM and the IC50 [5] was greater than 50 µM. The IC50 [6] was greater than 50 µM, the IC50 [7] was 32.9 µM and the IC50 [8] was 20.8 µM.
Compound `COc1ccc2c3c1O[C@H]1C[C@@H](O)CC[C@]31CCN(C)C2` [LYCORAMINE] has an IC50 [3] greater than 50 µM, an IC50 [4] greater than 50 µM and an IC50 [5] greater than 50 µM. The IC50 [6] was greater than 50 µM, the IC50 [7] was greater than 50 µM and the IC50 [8] was greater than 50 µM.
For `O[C@H]1[C@H]2c3cc4c(cc3CN3CCC(=C[C@@H]1O)[C@H]23)OCO4` [LYCORINE], the Activity [3] was “Dose-dependent effect”, the IC50 [3] was 1.6 µM and the IC50 [4] was 3.6 µM. It also gave an IC50 [5] of 13 µM, an IC50 [6] of 10.6 µM and an IC50 [7] of 5 µM. The IC50 [8] was 1.9 µM.
In the case of `O=C1N[C@@H]2C(=C[C@H](O)[C@@H](O)[C@H]2O)c2cc3c(c(O)c21)OCO3` [NARCICLASINE], the IC50 [25] is reported as 0.01 µM.
For `O=c1[nH]c2c(O)cccc2c2cc3c(c(O)c12)OCO3` [NARCIPRIMINE], the Activity [26] was “inactive”, the Activity [27] was “inactive” and the Activity [9] was “Dose-dependent effect”. The Activity [28] was “inactive”, the IC50 [3] was 13.3 µM and the IC50 [4] was greater than 50 µM. The IC50 [5] was greater than 50 µM, the IC50 [6] was greater than 50 µM and the IC50 [7] was greater than 50 µM. The IC50 [8] was 7.9 µM, the Activity [13] was “Dose-dependent effect” and the Activity [14] was “Active”. The Activity [15] was “Active”, the Activity [29] was “Active” and the “fold change (FC)” value [16] was 1.8. For the same compound, the Activity [21] was “inactive”.
In the case of `COc1ccc2c3c1O[C@H]1CC(=O)C=C[C@@]31CCN(C)C2` [NARWEDINE], the IC50 [3] is reported as 31.6 µM, the IC50 [4] is reported as greater than 50 µM and the IC50 [5] is reported as greater than 50 µM. It also gave an IC50 [6] greater than 50 µM, an IC50 [7] greater than 50 µM and an IC50 [8] greater than 50 µM.
Work on `O=C1N[C@H]2[C@H](O)[C@H](O)[C@@H](O)[C@H](O)[C@@H]2c2cc3c(c(O)c21)OCO3` [PANCRATISTATIN] yielded an IC50 [25] of 0.071 µM.
Work on `O=C(O[C@H]1[C@H](O)[C@@H](O)[C@@H](O)[C@@H]2NC(=O)c3c(cc4c(c3O)OCO4)[C@H]21)c1ccccc1` [PHENPANSTATIN] yielded an IC50 [30] of 0.00023 µM.
With `CN[C@@H]1C[C@H]2O[C@@](C)([C@@H]1OC)n1c3ccccc3c3c4c(c5c6ccccc6n2c5c31)C(=O)NC4` [STAUROSPORINE] the IC50 [3] was 0.023 µM.
